In BindingDB's records for doi:10.3109/14756366.2012.757603 (Sakarya University, 2014):
pIC50: −log10 of the molar value.

Key:
Carbonic anhydrase 1 = Carbonic anhydrase 1 (Homo sapiens, UniProt P00915); experiment: In Vitro Inhibition Assay
Procedure: (§1) For the inhibition studies of sulfonamide, different concentrations of these compounds were added to the enzyme. Activity percentage values of CA for different concentrations of each sulfonamide were determined by regression analysis usingMicrosoft Office 2000 Excel (New York, NY). CA enzyme activity without a sulfonamide solution was accepted to be 100%.

Carbonic anhydrase 2 = Carbonic anhydrase 2 (Homo sapiens, UniProt P00918); experiment: In Vitro Inhibition Assay
Procedure: as §1

Sequence of Carbonic anhydrase 1 (P00915 whole entry): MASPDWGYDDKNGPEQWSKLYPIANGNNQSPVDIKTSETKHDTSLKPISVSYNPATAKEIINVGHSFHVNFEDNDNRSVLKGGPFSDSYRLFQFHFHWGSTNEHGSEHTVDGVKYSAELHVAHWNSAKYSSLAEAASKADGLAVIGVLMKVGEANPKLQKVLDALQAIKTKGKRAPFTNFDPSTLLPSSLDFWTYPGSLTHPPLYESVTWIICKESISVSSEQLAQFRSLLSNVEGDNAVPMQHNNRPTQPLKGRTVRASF

Structure (SMILES)	pIC50 (Carbonic anhydrase 1)	pIC50 (Carbonic anhydrase 2)
CN1C(=O)C(=CNc2ccc(S(N)(=O)=O)cc2)C(=O)N(C)C1=O [4-((1,3-Dimethyl-2,4,6-trioxo-tetrahydropyrimidin-5(6H)-ylidene)methylamino)benzene-sulfonamide (2e)]	5.28	5.60
NS(=O)(=O)c1ccc(NC=C2C(=O)c3ccccc3C2=O)cc1 [4-((1,3-Dioxo-1H-inden-2(3H)-ylidene)methylamino)benzene-sulfonamide (2g)]	5.50	5.47
CC1(C)OC(=O)C(=CNc2ccc(S(N)(=O)=O)cc2)C(=O)O1 [4-((2,2-Dimethyl-4,6-dioxo-1,3-dioxan-5-ylidene)methylamino)benzene-sulfonamide (2c)]	5.18	4.73
NS(=O)(=O)c1ccc(NC=C2C(=O)NC(=O)NC2=O)cc1 [4-((2,4,6-Trioxo-tetrahydropyrimidin-5(6H)-ylidene)methylamino)benzene-sulfonamide (2f)]	4.96	5.00
NS(=O)(=O)c1ccc(NC=C2C(=O)CCC2=O)cc1 [4-((2,5-Dioxocyclopentylidene)methylamino)benzenesulfonamide (2h)]	5.32	5.47
NS(=O)(=O)c1ccc(NC=C2C(=O)CCCC2=O)cc1 [4-((2,6-Dioxocyclohexylidene)methylamino)benzenesulfonamide (2a)]	5.37	5.31
CC1(C)CC(=O)C(=CNc2ccc(S(N)(=O)=O)cc2)C(=O)C1 [4-((4,4-Dimethyl-2,6-dioxocyclohexylidene)methylamino)benzene-sulfonamide (2b)]	5.67	5.19
NS(=O)(=O)c1ccc(NC=C2C(=O)CC(c3ccco3)CC2=O)cc1 (stereo unspecified) [4-((4-(Furan-2-yl)-2,6-dioxocyclohexylidene)methylamino)benzenesulfonamide (2d)]	5.06	5.14
